Source: ChEMBL document CHEMBL3425401, “Identification of 8-aminoadenosine derivatives as a new class of human concentrative nucleoside transporter 2 inhibitors” (ACS Med Chem Lett, 2015)

Experiments:
[1] = target: T1, Sodium/nucleoside cotransporter 2 (Homo sapiens, UniProt O43868); test: Inhibition of human CNT2 expressed in COS7 cells assessed as reduction in sodium-dependent [14C]-inosine uptake in presence of Na+ by liquid scintillation counting method; type: cell-based, COS-7
T1 sequence (O43868 whole entry): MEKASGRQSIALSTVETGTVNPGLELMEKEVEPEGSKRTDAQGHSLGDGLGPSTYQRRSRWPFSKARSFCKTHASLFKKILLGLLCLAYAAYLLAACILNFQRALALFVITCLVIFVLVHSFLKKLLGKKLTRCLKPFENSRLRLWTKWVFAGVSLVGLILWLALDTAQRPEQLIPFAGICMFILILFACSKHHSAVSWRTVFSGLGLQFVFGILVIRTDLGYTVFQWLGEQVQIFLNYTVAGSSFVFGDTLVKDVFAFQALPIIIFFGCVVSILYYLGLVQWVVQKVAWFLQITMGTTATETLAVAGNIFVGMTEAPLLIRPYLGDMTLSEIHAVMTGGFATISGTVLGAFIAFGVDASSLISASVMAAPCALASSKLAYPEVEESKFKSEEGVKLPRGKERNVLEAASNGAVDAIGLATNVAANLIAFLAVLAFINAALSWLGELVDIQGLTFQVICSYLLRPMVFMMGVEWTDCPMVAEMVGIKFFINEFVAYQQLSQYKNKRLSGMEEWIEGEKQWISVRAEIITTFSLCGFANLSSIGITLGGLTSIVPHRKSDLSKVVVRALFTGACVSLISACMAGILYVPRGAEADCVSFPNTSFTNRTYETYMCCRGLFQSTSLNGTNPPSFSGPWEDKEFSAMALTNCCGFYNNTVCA

[2] = target: T2, Sodium/nucleoside cotransporter 2 (Homo sapiens) (UniProt O43868); test: Potency index, ratio of IC50 for 2'-deoxy-5-fluorouridine to IC50 for test compound against human CNT2 expressed in COS7 cells by sodium-dependent [14C]-inosine uptake assay; type: cell-based; details: COS-7
T2 sequence (whole entry): T1 sequence (O43868 whole entry)

[3] = target: T2, Sodium/nucleoside cotransporter 2 (Homo sapiens); test: Potency index, ratio of IC50 for phlorizin to IC50 for test compound against human CNT2 expressed in COS7 cells by sodium-dependent [14C]-inosine uptake assay; type: cell-based; details: COS-7
[4] = target: T2, Sodium/nucleoside cotransporter 2 (Homo sapiens); test: Potency index, ratio of IC50 for 7,8,3'-trihydroxyflavone to IC50 for test compound against human CNT2 expressed in COS7 cells by sodium-dependent [14C]-inosine uptake assay; type: cell-based; details: COS-7
[5] = target: T2, Sodium/nucleoside cotransporter 2 (Homo sapiens); test: Inhibition of human CNT2 expressed in COS7 cells assessed as reduction in sodium-dependent [14C]-inosine uptake at 1000 uM in presence of Na+ by liquid scintillation counting method; type: cell-based; details: COS-7
[6] = target: T2, Sodium/nucleoside cotransporter 2 (Homo sapiens); test: Inhibition of human CNT2 expressed in COS7 cells assessed as reduction in sodium-dependent [14C]-inosine uptake at 100 uM in presence of Na+ by liquid scintillation counting method; type: cell-based; details: COS-7

With `CCCCCNC(=O)OC[C@H]1O[C@@H](n2cnc3c(N)ncnc32)[C@H](O)[C@@H]1O` the IC50 [1] was > 100 µM.

`Nc1ncnc2c1nc(NCc1ccc(-c3ccccc3)cc1)n2[C@@H]1O[C@H](CO)[C@@H](O)[C@H]1O` gave a Ratio IC50 [2] of 1500, a Ratio IC50 [3] of 1500 and a Ratio IC50 [4] of 1500. The IC50 [1] was 0.64 µM.

In the case of `Nc1ncnc2c1nc(NCc1ccc(Cl)cc1)n2[C@@H]1O[C@H](CO)[C@@H](O)[C@H]1O`, the IC50 [1] is reported as 11 µM.

`CCCCCC(=O)OC[C@H]1O[C@@H](n2cnc3c(N)ncnc32)[C@H](O)[C@@H]1O` was tested, and the IC50 [1] was > 100 µM.

For `Nc1ncnc2c1ncn2[C@@H]1O[C@H](COC(=O)Cc2ccccc2)[C@@H](O)[C@H]1O`, the IC50 [1] was > 100 µM.

For `O=c1cc(-c2cccc(O)c2)oc2c(O)c(O)ccc12`, the inhibition [5] was < 50%, the IC50 [1] was > 1000 µM and the inhibition [6] was < 5%.

For `Nc1ncnc2c1nc(CCc1ccccc1)n2[C@@H]1O[C@H](CO)[C@@H](O)[C@H]1O`, the inhibition [6] was < 5%.

`CCC(=O)OC[C@H]1O[C@@H](n2cnc3c(N)ncnc32)[C@H](O)[C@@H]1O` was tested, and the IC50 [1] was > 100 µM.

`Nc1ncnc2c1nc(NCc1cccc(-c3ccccc3)c1)n2[C@@H]1O[C@H](CO)[C@@H](O)[C@H]1O` was tested, and the IC50 [1] was 21 µM.

For `C[C@H](Nc1nc2c(N)ncnc2n1[C@@H]1O[C@H](CO)[C@@H](O)[C@H]1O)c1ccccc1`, the inhibition [6] was < 5%.

Molecule `Nc1ncnc2c1nc(NCc1ccc3ccccc3c1)n2[C@@H]1O[C@H](CO)[C@@H](O)[C@H]1O` has an IC50 [1] of 5.3 µM.

Molecule `Nc1ncnc2c1nc(NCCCc1ccccc1)n2[C@@H]1O[C@H](CO)[C@@H](O)[C@H]1O` has an IC50 [1] of 536 µM and an inhibition [6] of 26%.

`COc1ccc(CNc2nc3c(N)ncnc3n2[C@@H]2O[C@H](CO)[C@@H](O)[C@H]2O)cc1` was tested, and the IC50 [1] was 36 µM.

With `CCNC(=O)OC[C@H]1O[C@@H](n2cnc3c(N)ncnc32)[C@H](O)[C@@H]1O` the IC50 [1] was > 100 µM.

With `CCOC(=O)OC[C@H]1O[C@@H](n2cnc3c(N)ncnc32)[C@H](O)[C@@H]1O` the IC50 [1] was > 100 µM.

Molecule `COc1cccc(CNc2nc3c(N)ncnc3n2[C@@H]2O[C@H](CO)[C@@H](O)[C@H]2O)c1` has an IC50 [1] of 13 µM.

With `Nc1ncnc2c1nc(NCc1cccc(Cl)c1)n2[C@@H]1O[C@H](CO)[C@@H](O)[C@H]1O` the IC50 [1] was 5.4 µM.

For `CNC(=O)OC[C@H]1O[C@@H](n2cnc3c(N)ncnc32)[C@H](O)[C@@H]1O`, the IC50 [1] was > 100 µM.

`O=c1[nH]c(=O)n([C@H]2C[C@H](O)[C@@H](CO)O2)cc1F` [FLOXURIDINE] was tested, and the inhibition [5] was < 50%, the IC50 [1] was > 1000 µM and the inhibition [6] was 17%.

`Nc1ncnc2c1nc(NCc1cccc3ccccc13)n2[C@@H]1O[C@H](CO)[C@@H](O)[C@H]1O` showed an IC50 [1] of 5.7 µM.

In the case of `Cc1ccccc1CNc1nc2c(N)ncnc2n1[C@@H]1O[C@H](CO)[C@@H](O)[C@H]1O`, the IC50 [1] is reported as 65 µM.

With `Nc1ncnc2c1nc(Nc1ccccc1)n2[C@@H]1O[C@H](CO)[C@@H](O)[C@H]1O` the IC50 [1] was 289 µM and the inhibition [6] was 36%.

With `Cc1ccc(CNc2nc3c(N)ncnc3n2[C@@H]2O[C@H](CO)[C@@H](O)[C@H]2O)cc1` the IC50 [1] was 11 µM.

`CN(Cc1ccccc1)c1nc2c(N)ncnc2n1[C@@H]1O[C@H](CO)[C@@H](O)[C@H]1O` was tested, and the inhibition [6] was < 5%.

In the case of `CCCCCOC(=O)OC[C@H]1O[C@@H](n2cnc3c(N)ncnc32)[C@H](O)[C@@H]1O`, the IC50 [1] is reported as > 100 µM.

`C[C@@H](Nc1nc2c(N)ncnc2n1[C@@H]1O[C@H](CO)[C@@H](O)[C@H]1O)c1ccccc1` was tested, and the inhibition [6] was < 5%.

In the case of `Nc1ncnc2c1nc(NCc1ccccc1Cl)n2[C@@H]1O[C@H](CO)[C@@H](O)[C@H]1O`, the IC50 [1] is reported as 5.7 µM.

With `O=C(CCc1ccc(O)cc1)c1c(O)cc(O)cc1O[C@@H]1O[C@H](CO)[C@@H](O)[C@H](O)[C@H]1O` [PHLORIZIN] the inhibition [5] was < 50%, the IC50 [1] was > 1000 µM and the inhibition [6] was 14%.

For `Nc1ncnc2c1nc(NCc1ccccc1-c1ccccc1)n2[C@@H]1O[C@H](CO)[C@@H](O)[C@H]1O`, the IC50 [1] was > 100 µM.

`Nc1ncnc2c1ncn2[C@@H]1O[C@H](COC(=O)OCc2ccccc2)[C@@H](O)[C@H]1O` was tested, and the IC50 [1] was > 100 µM.

For `COc1ccccc1CNc1nc2c(N)ncnc2n1[C@@H]1O[C@H](CO)[C@@H](O)[C@H]1O`, the IC50 [1] was > 100 µM.

In the case of `Nc1ncnc2c1nc(SCc1ccccc1)n2[C@@H]1O[C@H](CO)[C@@H](O)[C@H]1O`, the inhibition [6] is reported as < 5%.

With `Nc1ncnc2c1nc(NCCc1ccccc1)n2[C@@H]1O[C@H](CO)[C@@H](O)[C@H]1O` the IC50 [1] was 233 µM and the inhibition [6] was 39%.

For `Nc1ncnc2c1nc(OCc1ccccc1)n2[C@@H]1O[C@H](CO)[C@@H](O)[C@H]1O`, the inhibition [6] was < 5%.

For `CC(=O)OC[C@H]1O[C@@H](n2cnc3c(N)ncnc32)[C@H](O)[C@@H]1O`, the IC50 [1] was > 100 µM.

In the case of `Nc1ncnc2c1ncn2[C@@H]1O[C@H](COC(=O)NCc2ccccc2)[C@@H](O)[C@H]1O`, the IC50 [1] is reported as > 100 µM.

Molecule `Cc1cccc(CNc2nc3c(N)ncnc3n2[C@@H]2O[C@H](CO)[C@@H](O)[C@H]2O)c1` has an IC50 [1] of 19 µM.

`Nc1ncnc2c1nc(NCc1ccccc1)n2[C@@H]1O[C@H](CO)[C@@H](O)[C@H]1O` was tested, and the IC50 [1] was 52 µM and the inhibition [6] was 58%.

For `COC(=O)OC[C@H]1O[C@@H](n2cnc3c(N)ncnc32)[C@H](O)[C@@H]1O`, the IC50 [1] was > 100 µM.
